Like-named read-outs stand apart in the source and are kept apart here.

The record followed here is patent US9790233B2, “Compositions and methods of modulating 15-PGDH activity” (CASE WESTERN RESERVE UNIVERSITY, priority 2012, dated 2017).

Assay [1] is described as follows: Survival after whole body irradiation. The class given is in vivo, C57BL/6J mice. The following applies: 11 Gy.
Assay [2] has as its system 15-PGDH luciferase fusion construct in V9m reporter cell line. As to the kind of experiment: 15-PGDH-luciferase fusion gene reporter induction, V9m cells. The format is cell-based.
Assay [3] relates to 15-PGDH luciferase fusion construct in LS174T reporter cell line. As to the kind of experiment: 15-PGDH-luciferase fusion gene reporter induction, LS174T cells. The class given is cell-based. The note with it: Homo sapiens.
Assay [4] relates to 15-PGDH luciferase fusion construct in Vaco503 reporter cell line. Nature of the assay: 15-PGDH-luciferase fusion gene reporter induction, V503 cells. The format is cell-based.
For assay [5], the system named is A549 cells. As to the kind of experiment: PGE2 levels in the medium of IL1-beta stimulated A549 cells.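 Note: PGE2 in the collected culture medium quantified by enzyme immunoassay (ELISA), with data drawn from three independent experiments.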 The format is cell-based.
[6] abbreviates: read-out: V9M-SC3 Reporter activity ([…]) (%), V9m reporter cells, […] compound, % induction of luciferase activity over basal level, read-out: V9M-SC3 Reporter activity (2.5 μM) (%).
[7] abbreviates: read-out: V9M-SC3 Reporter activity ([…]), %, V9m reporter cells, […] compound, % induction of luciferase activity over basal level, read-out: V9M-SC3 Reporter activity (7.5 μM), %.
[8] abbreviates: read-out: Ls174T-SC1 reporter activity, % ([…]), LS174T reporter cells, […] compound, % induction of luciferase activity over basal level, read-out: Ls174T-SC1 reporter activity, % (2.5 μM).
Where [9] appears, read: read-out: Ls174T-SC1 reporter activity, % ([…]), LS174T reporter cells, […] compound, % induction of luciferase activity over basal level, read-out: Ls174T-SC1 reporter activity, % (7.5 μM).
Where [10] appears, read: read-out: V503-3H9-7 reporter activity, % ([…]), V503 reporter cells, […] compound, % induction of luciferase activity over basal level, read-out: V503-3H9-7 reporter activity, % (2.5 μM).
The mark [11] stands for this setting: read-out: V503-3H9-7 reporter activity, % ([…]), V503 reporter cells, […] compound, % induction of luciferase activity over basal level, read-out: V503-3H9-7 reporter activity, % (7.5 μM).
The mark [12] stands for this setting: read-out: V9M reporter activity ([…]), […], % induction of luciferase activity over basal level, Table 17, read-out: V9M reporter activity (2.5 μM).
The mark [13] stands for this setting: read-out: V9M reporter activity ([…]), […], % induction over basal level, Table 17, read-out: V9M reporter activity (7.5 μM).
Setting [14] is: read-out: LS174T reporter activity ([…]), […], % induction over basal level, Table 17, read-out: LS174T reporter activity (2.5 μM).
Where [15] appears, read: read-out: lS174T reporter activity ([…]), […], % induction over basal level, Table 17, read-out: lS174T reporter activity (7.5 μM).
Where [16] appears, read: read-out: V503 reporter activity ([…]), […], % induction over basal level, Table 17, read-out: V503 reporter activity (2.5 μM).
The mark [17] stands for this setting: read-out: V503 reporter activity ([…]), […], % induction over basal level, Table 17, read-out: V503 reporter activity (7.5 μM).

“2-(butylsulfinyl)-4-phenyl-6-(thiophen-2-yl)thieno[2,3-b]pyridin-3-amine [SW033291]”: in assay [1] (5 mg/kg IP daily), the “longer survival than vehicle control” value was 48 h. Also, in assay [1] (control day 8), the “day on which all mice were dead” value worked out at 10 days.
Regarding `CCOC(=O)CN(c1cc(OC)ccc1OC)S(=O)(=O)c1ccccc1` [SW202951], the activation at […] in assay [2] (setting [6]) turned out to be 4.56%; in assay [2] (setting [7]), 17.7%; in assay [3] (setting [8]) it was 34.3%; in assay [3] (setting [9]), 47.6%; in assay [4] (setting [10]) it was 97.5%; in assay [4] (setting [11]), 131%. In addition, the “Decrease PGE-2 (IL-1beta-A549, %)” value in assay [5] (media of IL-1beta stimulated A549 cells) is given as −1.01%.
In the case of `COc1ccc(S(=O)(=O)N(CC(=O)N2CCOCC2)c2cc(OC)ccc2OC)cc1` [SW207997], the activation at […] in assay [2] (setting [6]) came out at 59.5%; in assay [2] (setting [7]), 71%; in assay [3] (setting [8]), 87.6%; in assay [3] (setting [9]), 94.1%; in assay [4] (setting [10]), 149%; in assay [4] (setting [11]) it was 157%. Also, the “rank of reduction in levels of PGE2 in the medium” value in assay [5] (100 nM drug, FIG. 94) is on record as “greatest reduction in levels of PGE2”.
In the case of `CCCC[S+]([O-])c1sc2nc(-c3nccs3)cc(-c3ccccc3)c2c1N` (centres unmarked) [SW208066, 2-(butylsulfinyl)-4-phenyl-6-(thiazol-2-yl)thieno[2,3-b]pyridin-3-amine], the “rank of PGE2 level in the medium” value in assay [5] (100 nM drug, FIG. 44) is “highest levels of PGE2”.
In the case of `COc1ccc(OC)c(N(CC(=O)Nc2ccccc2Br)S(=O)(=O)c2ccc(C)cc2)c1` [compound 771132], the activation at […] is -2.26% in assay [2] (setting [12]); 12.2% in assay [2] (setting [13]); 14% in assay [3] (setting [14]); 13.5% in assay [3] (setting [15]); 24.8% in assay [4] (setting [16]); 40.8% in assay [4] (setting [17]).
For `COc1ccc(N(CC(=O)Nc2ccccc2Br)S(=O)(=O)c2ccc(C)cc2)c(OC)c1` [compound 771138], the activation at […] in assay [2] (setting [12]) is -4.36%; in assay [2] (setting [13]), 6.75%; in assay [3] (setting [14]) it was 13.6%; in assay [3] (setting [15]) it was 9.23%; in assay [4] (setting [16]) it was 34.4%; in assay [4] (setting [17]), 72.6%.
Take `COc1ccc(OC)c(N(CC(=O)Nc2ccc(I)cc2)S(=O)(=O)c2ccc(C)cc2)c1` [compound 771146]: the activation at […] was -38.1% in assay [2] (setting [12]); -78.3% in assay [2] (setting [13]); -31.6% in assay [3] (setting [14]); -68.8% in assay [3] (setting [15]); -49.7% in assay [4] (setting [16]); -86.6% in assay [4] (setting [17]).
`COc1ccc(N(CC(=O)Nc2ccc(Br)cc2)S(=O)(=O)c2ccccc2)c(OC)c1` [compound 785161]: the activation at […] in assay [2] (setting [12]) is 0.54%; in assay [2] (setting [13]) it was 3.48%; in assay [3] (setting [14]), 10.7%; in assay [3] (setting [15]) it was -41.9%; in assay [4] (setting [16]), 56.7%; in assay [4] (setting [17]), -52.5%.
Take `COc1ccc(OC)c(N(CC(=O)Nc2cccc(Cl)c2)S(=O)(=O)c2ccc(OC)c(OC)c2)c1` [compound 785254]: the activation at […] is -16.1% in assay [2] (setting [12]); -8.48% in assay [2] (setting [13]); 2.93% in assay [3] (setting [14]); 4.29% in assay [3] (setting [15]); 16.1% in assay [4] (setting [16]); 28.3% in assay [4] (setting [17]).
Turning to `COc1ccc(N(CC(=O)Nc2ccc(CC#N)cc2)S(=O)(=O)c2ccccc2)cc1Cl` [compound 919576], the activation at […] in assay [2] (setting [12]) was found to be 49.9%; in assay [2] (setting [13]), 63%; in assay [3] (setting [14]), 17.5%; in assay [3] (setting [15]) it was 30.7%; in assay [4] (setting [16]), 49.2%; in assay [4] (setting [17]) it was 73.7%.
Turning to `COc1ccc(NC(=O)CN(c2ccccc2OC)S(C)(=O)=O)cc1` [compound 920847], the activation at […] in assay [2] (setting [12]) was 9.26%; in assay [2] (setting [13]) it was 17.7%; in assay [3] (setting [14]), 6.18%; in assay [3] (setting [15]), 2.97%; in assay [4] (setting [16]), -4.47%; in assay [4] (setting [17]) it was -10.6%.
`COc1ccc(OC)c(N(CC(=O)Nc2ccccc2Br)S(=O)(=O)c2ccc(OC)c(OC)c2)c1` [compound 924740]: the activation at […] in assay [2] (setting [12]) was -0.54%; in assay [2] (setting [13]), 6.33%; in assay [3] (setting [14]), 7.69%; in assay [3] (setting [15]) it was 16.7%; in assay [4] (setting [16]), 20.2%; in assay [4] (setting [17]) it was 52.2%.
In the case of `COc1ccc(OC)c(N(CC(=O)Nc2cccc(Br)c2)S(=O)(=O)c2ccc(OC)c(OC)c2)c1` [compound 939417], the activation at […] in assay [2] (setting [12]) was -11.2%; in assay [2] (setting [13]), -9.81%; in assay [3] (setting [14]), 6.5%; in assay [3] (setting [15]), -1.64%; in assay [4] (setting [16]), 12.6%; in assay [4] (setting [17]) it was 16.2%.
In the case of `COc1ccc(OC)c(N(CC(=O)NC(C)c2ccccc2)S(=O)(=O)c2ccc(OC)c(OC)c2)c1` (centres unmarked) [compound 967134], the activation at […] in assay [2] (setting [12]) was -10.1%; in assay [2] (setting [13]), -2.64%; in assay [3] (setting [14]), 5.11%; in assay [3] (setting [15]) it was 5.73%; in assay [4] (setting [16]) it was 18.4%; in assay [4] (setting [17]) it was 36.1%.
On to `NC(=O)c1sc2nc(-c3cccs3)cc(-c3ccc(F)cc3)c2c1N` [compound 980653], for which the activation at […] was 8.83% in assay [2] (read-out: V9M reporter activity ([…]), […], % increased luciferase activity over basal level, 100 = doubling, read-out: V9M reporter activity (2.5 uM)); 12% in assay [2] (read-out: V9M reporter activity ([…]), […], % increased luciferase activity over basal level, 100 = doubling, read-out: V9M reporter activity (7.5 uM)); 5.76% in assay [3] (read-out: LS174T reporter activity ([…]), […], % increased luciferase activity over basal level, read-out: LS174T reporter activity (2.5 uM)); 11% in assay [3] (read-out: LS174T reporter activity ([…]), […], % increased luciferase activity over basal level, read-out: LS174T reporter activity (7.5 uM)); -10.5% in assay [4] (read-out: V503 reporter activity ([…]), […], % increased luciferase activity over basal level, read-out: V503 reporter activity (2.5 uM)); -15.2% in assay [4] (read-out: V503 reporter activity ([…]), […], % increased luciferase activity over basal level, read-out: V503 reporter activity (7.5 uM)).
Regarding `COc1ccc(OC)c(NC(=O)CN(c2ccccc2)S(=O)(=O)c2cc(Br)ccc2OC)c1` [compound 1002654], the activation at […] in assay [2] (setting [12]) was -2.58%; in assay [2] (setting [13]), -3.96%; in assay [3] (setting [14]), 5.51%; in assay [3] (setting [15]), -1.24%; in assay [4] (setting [16]), 0.78%; in assay [4] (setting [17]), 19.2%.
Regarding `COc1ccc(OC)c(N(CC(=O)Nc2ccc(I)cc2C)S(=O)(=O)c2ccccc2)c1` [compound 1003012], the activation at […] in assay [2] (setting [12]) was -10.4%; in assay [2] (setting [13]), -0.9%; in assay [3] (setting [14]) it was 5.54%; in assay [3] (setting [15]), 19.8%; in assay [4] (setting [16]), 34.4%; in assay [4] (setting [17]), 58.5%.
Consider `CCOC(=O)c1ccc(NC(=O)CN(c2cc(OC)ccc2OC)S(=O)(=O)c2ccc(OC)c(OC)c2)cc1` [compound 1003132], for which the activation at […] in assay [2] (setting [12]) was -5.6%; in assay [2] (setting [13]) it was -0.21%; in assay [3] (setting [14]) it was 5.16%; in assay [3] (setting [15]) it was 1.73%; in assay [4] (setting [16]) it was 15.4%; in assay [4] (setting [17]), 16.1%.
Turning to `COc1ccc(OC)c(N(CC(=O)Nc2ccccc2C(=O)NC(C)C)S(=O)(=O)c2ccc(OC)c(OC)c2)c1` [compound 1003378], the activation at […] is -4.42% in assay [2] (setting [12]); -3.27% in assay [2] (setting [13]); 7.3% in assay [3] (setting [14]); 1.27% in assay [3] (setting [15]); 7.23% in assay [4] (setting [16]); 16.7% in assay [4] (setting [17]).
Take `CCc1cccc(CC)c1NC(=O)CN(c1cc(OC)ccc1OC)S(=O)(=O)c1ccc(OC)c(OC)c1` [compound 1003429]: the activation at […] was 12.6% in assay [2] (setting [12]); 4.17% in assay [2] (setting [13]); 8.82% in assay [3] (setting [14]); -6.88% in assay [3] (setting [15]); -7.46% in assay [4] (setting [16]); -19.2% in assay [4] (setting [17]).
With `COc1ccc(OC)c(N(CC(=O)Nc2ccc(Br)cc2F)S(=O)(=O)c2ccc(C)cc2)c1` [compound 1004292], the activation at […] was 0.88% in assay [2] (setting [12]); -0.21% in assay [2] (setting [13]); 20.3% in assay [3] (setting [14]); 0.14% in assay [3] (setting [15]); 23.5% in assay [4] (setting [16]); 21.2% in assay [4] (setting [17]).
